The subject of the test is male C57BL mice. The test is described as follows: Dose-response effect on intestinal growth (SI mass, SI-Colon Sensitivity Index, colon and stomach mass). In kind it is in vivo. The following applies: 5-405 nmol/kg s.c. b.i.d. for three days. As for the experimental part:
Values are means±SEM. *: P<0.05 relative to the equimolar dose of [Gly2]GLP-2 (SEQ ID NO:54).
FIG. 2 is a set of graphs showing full dose-response data of four small intestine selective compounds (compound nos. 1846 (SEQ ID NO:34), 1855 (SEQ ID NO:43), 1848 (SEQ ID NO:36), 1858 (SEQ ID NO:46)) on the Small Intestine (SI)-to-Colon Sensitivity Index mice relative to the non-selective reference compound [Gly2]GLP-2 (SEQ ID NO:54). Compounds were administered by subcutaneous injection b.i.d. for three days in C57BL mice at the following doses: 0 (vehicle), 5, 15, 45, 135, 405 nmol/kg (n=6/dose group). Responses at each dose level were compared with responses obtained at the same dose level in pair-treated mice treated with the non-selective reference compound [Gly2]GLP-2 (SEQ ID NO:54). The SI-Colon Sensitivity Index was calculated as SI-mass relative to colon mass and the Sensitivity Index at each dose level was normalized to the response observed with the non-selective reference compound [Gly2]GLP-2 (SEQ ID NO:54). […] Values are means±SEM. *: P<0.05 relative to the equimolar dose of [Gly2]GLP-2.
FIG. 4 is a set of graphs showing full dose-response data of three small intestine selective compounds (compound nos. 1857 (SEQ ID NO:45), 1820 (SEQ ID NO:10), and 1849 (SEQ ID NO:37)) on the Small Intestine (SI)-to-Colon Sensitivity Index mice relative to the non-selective reference compound [Gly2]GLP-2 (SEQ ID NO:54). Compounds were administered by subcutaneous injection b.i.d. for three days in C57BL mice at the following doses: 0 (vehicle), 5, 15, 45, 135, 405 nmol/kg (n=6/dose group). Responses at each dose level were compared with responses obtained at the same dose level in pair-treated mice treated with the non-selective reference compound [Gly2]GLP-2 (SEQ ID NO:54). The SI-Colon Sensitivity Index was calculated as SI-mass relative to colon mass and the Sensitivity Index at each dose level was normalized to the response observed with the non-selective reference compound [Gly2]GLP-2 (SEQ ID NO:54). […] Values are means±SEM. *: P<0.05 relative to the equimolar dose of [Gly2]GLP-2 (SEQ ID NO:54).
Compounds were administered by subcutaneous injection b.i.d. for three days in C57BL mice at the following doses: 0 (vehicle), 5, 15, 45, 135, 405 nmol/kg (n=6/dose group). […] Values are means±SEM. *: P<0.05 relative to the vehicle.
The dose-response effect of 1820 (SEQ ID NO:10), 1855 (SEQ ID NO:43), ZP1846 (SEQ ID NO:34), 1858 (SEQ ID NO:46), 1849 (SEQ ID NO:37), 1848 (SEQ ID NO:36), and 1857 (SEQ ID NO:45) on small intestinal mass was determined in male C57BL mice. Individual groups (n=6) of mice were given 5, 15, 45, 135 or 405 nmol/kg of each compound, s.c, twice daily for three consecutive days. For comparison purposes other groups of animals were given either equimolar doses of [Gly2]GLP-2 (SEQ ID NO:54) or vehicle (phosphate buffered saline, pH 7.4) in the same dosing regimen. Twenty-four hours after the last dose of compound had been given the mice were sacrificed and the small intestine (from the pylorus to the cecum emptied and weighed to determine the effect on small intestinal mass.

“Also recorded” adds a separate entry of the source. No end group written: not given here.

On to “[Gly2, Glu3, Leu10, Ser11, Ala16,24,28]hGLP-2(1-33)-NH2 [Compound 1857]”, for which the “SI-Colon Sensitivity Index (SI mass relative to colon mass) relative to [Gly2]GLP-2” value was “increased maximal small intestinal sensitivity relative to [Gly2]GLP-2; also recorded: increased selectivity for causing growth of the small intestine relative to the colon” and the “Small intestinal mass (SI-BW ratio), maximal response relative to [Gly2]GLP-2” value is “maximal responses that were significantly greater than [Gly2]GLP-2”.
As for “[Gly2, Glu3, Ser8,11, Leu10, Ala16,24,28]hGLP-2(1-33)-(Lys)6-NH2 (HGEGSFSSELSTILDALAARDFIAWLIATKITDKKKKKK-NH2) [Compound 1846]”, the “SI-Colon Sensitivity Index (SI mass relative to colon mass) relative to [Gly2]GLP-2” value was “increased maximal small intestinal sensitivity relative to [Gly2]GLP-2; also recorded: increased selectivity for causing growth of the small intestine relative to the colon” and the “Small intestinal mass (SI-BW ratio), maximal response relative to [Gly2]GLP-2” value is “maximal responses that were significant greater than [Gly2]GLP-2”.
As for “[Gly2, Glu3, Thr5, Ser8, Leu10, Ala11,16,24,28]hGLP-2(1-33)-(Lys)6-NH2 (HGEGTFSSELATILDALAARDFIAWLIATKITDKKKKKK-NH2) [Compound 1848]”, the “SI-Colon Sensitivity Index (SI mass relative to colon mass) relative to [Gly2]GLP-2” value was “increased maximal small intestinal sensitivity relative to [Gly2]GLP-2; also recorded: increased selectivity for causing growth of the small intestine relative to the colon” and the “Small intestinal mass (SI-BW ratio), maximal response relative to [Gly2]GLP-2” value is “maximal responses that were significant greater than [Gly2]GLP-2”. The “Growth stimulation of small intestine, colon and stomach mass” value (vs vehicle) was “only produced dose-dependent growth stimulation in the small intestine”.
With “[Gly2, Glu3, Thr5, Ser8, Leu10, Ala11,16,24,28]hGLP-2(1-33)-NH2 [Compound 1855]”, the “SI-Colon Sensitivity Index (SI mass relative to colon mass) relative to [Gly2]GLP-2” value was “increased maximal small intestinal sensitivity relative to [Gly2]GLP-2; also recorded: increased selectivity for causing growth of the small intestine relative to the colon” and the “Small intestinal mass (SI-BW ratio), maximal response relative to [Gly2]GLP-2” value was “maximal responses that were significant greater than [Gly2]GLP-2”.
